Our source for the kinact/KI, Ki and kinact values is patent publication US20100324147A1, “ARYLCYCLOPROPYLAMINES AND METHODS OF USE” (priority 2009, published 2010).

Each structure is given as a SMILES string.

Assay type in all cases: biochemical
Details in all cases: for Ki: inhibitor concentration that yields half the maximal rate of inactivation; for kinact: maximal rate of inactivation

The target of one experiment is LSD1 (Homo sapiens, UniProt O60341). Kind of experiment: HRP-coupled amine oxidase assay, time-dependent inactivation of LSD1. The method, then: (§1) For example, in vitro enzymatic assays may be performed in which hydrogen peroxide generated from reoxidation of the FAD cofactor by molecular oxygen by LSD1 or MAOs is monitored, e.g., using a horseradish peroxidase (HRP) coupled assay. The enzyme may be incubated with an appropriate peptide substrate that includes a dimethylated lysine residue, as well as an arylcyclopropylamine compound of the invention. A fluorogenic substrate may be included in the reaction, which upon reaction with H2O2 produced by the enzyme produces a fluorescent substrate that may be detected. Inhibition kinetics may then be determined by appropriate fitting of the data.
The C-terminal GYG was added to allow for quantification of the peptide concentration.
(§2) The peroxide production generated from reoxidation of the FAD cofactor by molecular oxygen by LSD1 or MAOs was monitored using a horseradish peroxidase (HRP) coupled assay (FIG. 1). Amplex red was used as the fluorogenic electron acceptor and the fluorescence (excitation 560 nm, emission 590 nm) was measured using a Molecular Devices Spectra Max Gemini EM plate reader. The inhibition kinetics were determined by fitting the progress curves to eq. 1 describing time-dependent inactivation to determine kobs:
(§3) product=(vi/kobs)(1−e^−k^obs^t) (1)
(§4) where vi is the initial rate prior to inactivation, t is time and kobs is the observed rate of inactivation. The resulting values were plotted as a function of inhibitor concentration to obtain values of Ki and kinact according to eq. 2.
(§5) where kinact is the maximal rate of inactivation and Ki is the inhibitor concentration that yields half that rate of inactivation.

For another experiment, the target named is T1, MAO B (Homo sapiens, UniProt P27338).
T1 sequence (P27338 1-520): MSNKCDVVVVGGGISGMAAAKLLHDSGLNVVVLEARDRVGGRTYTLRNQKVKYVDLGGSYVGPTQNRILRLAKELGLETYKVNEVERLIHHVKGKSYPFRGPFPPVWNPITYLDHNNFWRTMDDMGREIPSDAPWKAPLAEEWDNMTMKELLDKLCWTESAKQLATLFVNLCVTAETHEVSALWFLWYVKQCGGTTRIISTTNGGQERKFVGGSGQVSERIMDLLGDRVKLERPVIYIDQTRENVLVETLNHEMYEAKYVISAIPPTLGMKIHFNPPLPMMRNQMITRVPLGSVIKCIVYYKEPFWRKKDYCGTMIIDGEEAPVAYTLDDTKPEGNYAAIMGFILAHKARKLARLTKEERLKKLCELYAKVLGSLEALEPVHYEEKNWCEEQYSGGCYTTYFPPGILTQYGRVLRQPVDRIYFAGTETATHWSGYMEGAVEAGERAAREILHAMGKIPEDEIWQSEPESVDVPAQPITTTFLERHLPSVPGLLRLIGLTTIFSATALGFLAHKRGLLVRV
Description: HRP-coupled amine oxidase assay, time-dependent inactivation of MAO B. As for the experimental part: as §1, §2, §3, §4, §5

In the next experiment the target is T2, MAO A (Homo sapiens, UniProt P21397).
T2 sequence (P21397 1-527): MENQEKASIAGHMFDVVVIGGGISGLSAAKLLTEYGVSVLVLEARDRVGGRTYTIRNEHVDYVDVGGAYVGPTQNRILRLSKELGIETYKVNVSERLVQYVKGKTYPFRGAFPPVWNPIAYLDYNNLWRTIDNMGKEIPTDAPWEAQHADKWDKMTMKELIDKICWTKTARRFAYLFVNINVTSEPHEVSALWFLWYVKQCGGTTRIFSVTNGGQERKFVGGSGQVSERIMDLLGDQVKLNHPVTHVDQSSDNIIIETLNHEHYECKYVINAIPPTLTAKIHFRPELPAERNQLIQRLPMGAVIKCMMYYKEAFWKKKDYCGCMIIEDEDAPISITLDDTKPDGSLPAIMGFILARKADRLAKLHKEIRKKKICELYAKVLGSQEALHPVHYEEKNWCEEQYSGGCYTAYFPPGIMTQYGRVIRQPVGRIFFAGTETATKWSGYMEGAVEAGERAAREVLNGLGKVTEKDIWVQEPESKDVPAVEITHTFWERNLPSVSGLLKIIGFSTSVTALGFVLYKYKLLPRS
Kind of experiment: HRP-coupled amine oxidase assay, time-dependent inactivation of MAO A. The method, then:
as §1, §2, §3, §4, §5

A word on the kinact/KI: it is the maximal inactivation rate divided by the concentration that gives half of it. Turning to `NC1CC1c1cccc(OCc2ccccc2)c1` (stereo not shown) [compound 4], at LSD1, the kinact/KI was determined as 33 M⁻¹ s⁻¹ and the Ki turned out to be 760 ± 280 µM.
For orientation: kinact means the maximal first-order rate at which the target is inactivated. Consider `CCOc1ccc(C2CC2N)cc1` (stereo not shown) [compound 1], for which the kinact/KI at LSD1 amounted to 45 M⁻¹ s⁻¹; at MAO B, 762 M⁻¹ s⁻¹; at MAO A it was 3140 M⁻¹ s⁻¹. For the same molecule, the values for the Ki on LSD1, on MAO B and at MAO A were 456 ± 86 µM, 63 ± 10 µM and 4.3 ± 0.8 µM, respectively. For the same molecule, the kinact on LSD1 was determined as 0.0204 ± 0.0018 s⁻¹; on MAO B it was 0.048 ± 0.004 s⁻¹; at MAO A, 0.0135 ± 0.0004 s⁻¹.
On to `CC(C)(C)c1ccc(Sc2ccc(C3CC3N)cc2)cc1` (stereo not shown) [compound 5], for which, at LSD1, the kinact/KI was found to be 40 M⁻¹ s⁻¹ and the kinact stood at 0.0215 ± 0.003 s⁻¹.
In the case of `CC(C)Oc1ccc(C2CC2N)cc1` (stereo not shown) [compound 2], at LSD1, the kinact/KI came out at 54 M⁻¹ s⁻¹, the Ki worked out at 352 ± 76 µM and the kinact came out at 0.0192 ± 0.0017 s⁻¹. Moreover, at MAO B, the kinact/KI was 383 M⁻¹ s⁻¹, the Ki worked out at 106 ± 20 µM and the kinact turned out to be 0.046 ± 0.006 s⁻¹. Also, at MAO A, the kinact/KI came to 1320 M⁻¹ s⁻¹, the Ki was 19.7 ± 4.6 µM and the kinact was determined as 0.026 ± 0.002 s⁻¹.
For the molecule `NC1CC1c1ccc(Oc2ccccc2)cc1` (stereo not shown) [compound 3], on MAO B, the kinact/KI came to 1100 M⁻¹ s⁻¹, the Ki stood at 29.5 ± 4.4 µM and the kinact was 0.0623 ± 0.0018 s⁻¹. Moreover, on MAO A, the kinact/KI was determined as 5720 M⁻¹ s⁻¹, the Ki is 12.4 ± 4.3 µM and the kinact turned out to be 0.071 ± 0.007 s⁻¹.
